Biological target: T1, human P2X4 (Homo sapiens, UniProt Q99571)
T1 sequence (Q99571 1-388): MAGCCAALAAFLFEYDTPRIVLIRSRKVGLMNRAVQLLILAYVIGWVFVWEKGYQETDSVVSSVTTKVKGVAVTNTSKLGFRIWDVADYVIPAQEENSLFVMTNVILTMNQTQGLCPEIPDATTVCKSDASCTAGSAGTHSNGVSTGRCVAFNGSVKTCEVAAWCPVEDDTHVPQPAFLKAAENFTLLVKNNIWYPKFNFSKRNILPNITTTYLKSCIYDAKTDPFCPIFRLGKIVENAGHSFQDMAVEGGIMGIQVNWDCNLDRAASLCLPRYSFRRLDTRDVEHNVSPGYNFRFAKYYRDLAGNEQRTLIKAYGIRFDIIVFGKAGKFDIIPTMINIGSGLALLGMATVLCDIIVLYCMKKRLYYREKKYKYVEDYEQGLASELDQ
Experiment: Human P2X4 HEK Cell FLIPR Assay
Type: cell-based
Details: agonist Bz-ATP at EC80; for Emax: HEK293, HEK293 cells, percentage of maximal inhibition, read-out: Human P2X4 HEK Cells (FLIPR Assay) avg Efficacy [%]; for IC50: HEK293 cells, individual values listed where some fall outside detection range
Outline: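 Calcium flux read by FLIPR for 120 sec after Bz-ATP challenge at EC80 (established each assay day), following 30 min room-temperature compound preincubation in dye-loaded stable human P2X4 HEK293 cells. Peak RFU over basal normalized to agonist control; IC50, maximal inhibition and Hill coefficient from triplicate means.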

SMILES | Emax [%] | IC50 [nM]
N#Cc1cnn(-c2ccc(NC(=O)Cc3ccc(O)cc3)cc2S(N)(=O)=O)c1 [Example 194, N-[4-(4-Cyano-1H-pyrazol-1-yl)-3-sulfamoylphenyl]-2-(4-hydroxyphenyl)acetamide] | 84 | 325
Cc1ccc(CC(=O)Nc2ccc(-n3cc(C#N)cn3)c(S(N)(=O)=O)c2)cc1 [Example 195, N-[4-(4-Cyano-1H-pyrazol-1-yl)-3-sulfamoylphenyl]-2-(4-methylphenyl)acetamide] | 68 | 86
COc1ccc(CC(=O)Nc2ccc(-n3cc(C#N)cn3)c(S(N)(=O)=O)c2)cc1 [Example 196, N-[4-(4-Cyano-1H-pyrazol-1-yl)-3-sulfamoylphenyl]-2-(4-methoxyphenyl)acetamide] | 75 | 164
Cc1ccccc1CC(=O)Nc1ccc(-n2cc(C#N)cn2)c(S(N)(=O)=O)c1 [Example 197, N-[4-(4-Cyano-1H-pyrazol-1-yl)-3-sulfamoylphenyl]-2-(2-methylphenyl)acetamide] | 87 | 86
Cc1cccc(CC(=O)Nc2ccc(-n3cc(C#N)cn3)c(S(N)(=O)=O)c2)c1 [Example 198, N-[4-(4-Cyano-1H-pyrazol-1-yl)-3-sulfamoylphenyl]-2-(3-methylphenyl)acetamide] | 94 | 136
CCOc1ccccc1CC(=O)Nc1ccc(-n2cc(C#N)cn2)c(S(N)(=O)=O)c1 [Example 199, N-[4-(4-Cyano-1H-pyrazol-1-yl)-3-sulfamoylphenyl]-2-(2-ethoxyphenyl)acetamide] | 85 | 299
N#Cc1cnn(-c2ccc(NC(=O)Cc3cccc(F)c3F)cc2S(N)(=O)=O)c1 [Example 200, N-[4-(4-Cyano-1H-pyrazol-1-yl)-3-sulfamoylphenyl]-2-(2,3-difluorophenyl)acetamide] | 90 | 131
N#Cc1cnn(-c2ccc(NC(=O)Cc3cccnc3Cl)cc2S(N)(=O)=O)c1 [Example 201, 2-(2-Chloropyridin-3-yl)-N-[4-(4-cyano-1H-pyrazol-1-yl)-3-sulfamoylphenyl]-acetamide] | 83 | 4330
N#Cc1cnn(-c2ccc(NC(=O)Cc3ccc(F)cc3Cl)cc2S(N)(=O)=O)c1 [Example 202, 2-(2-Chloro-4-fluorophenyl)-N-[4-(4-cyano-1H-pyrazol-1-yl)-3-sulfamoylphenyl]-acetamide] | 90 | 48
N#Cc1cnn(-c2ccc(NC(=O)Cc3ccccc3OC(F)F)cc2S(N)(=O)=O)c1 [Example 203, N-[4-(4-Cyano-1H-pyrazol-1-yl)-3-sulfamoylphenyl]-2-[2-(difluoromethoxy)phenyl]-acetamide] | 86 | 99
N#Cc1cnn(-c2ccc(NC(=O)Cc3ccccc3OC(F)(F)F)cc2S(N)(=O)=O)c1 [Example 204, N-[4-(4-Cyano-1H-pyrazol-1-yl)-3-sulfamoylphenyl]-2-[2-(trifluoromethoxy)phenyl]-acetamide] | 86 | 72
N#Cc1cnn(-c2ccc(NC(=O)Cc3cc(F)c(F)cc3Cl)cc2S(N)(=O)=O)c1 [Example 205, 2-(2-Chloro-4,5-difluorophenyl)-N-[4-(4-cyano-1H-pyrazol-1-yl)-3-sulfamoylphenyl]-acetamide] | 89 | 73
N#Cc1cnn(-c2ccc(NC(=O)Cc3cccc(C(F)(F)F)c3Cl)cc2S(N)(=O)=O)c1 [Example 206, 2-[2-Chloro-3-(trifluoromethyl)phenyl]-N-[4-(4-cyano-1H-pyrazol-1-yl)-3-sulfamoylphenyl]acetamide] | 98 | 29
Cc1ccc(F)c(CC(=O)Nc2ccc(-n3cc(C#N)cn3)c(S(N)(=O)=O)c2)c1Cl [Example 207, 2-(2-Chloro-6-fluoro-3-methylphenyl)-N-[4-(4-cyano-1H-pyrazol-1-yl)-3-sulfamoylphenyl]acetamide] | 98 | 12
N#Cc1cnn(-c2ccc(NC(=O)Cc3c(F)ccc(F)c3Cl)cc2S(N)(=O)=O)c1 [Example 208, 2-(2-Chloro-3,6-difluorophenyl)-N-[4-(4-cyano-1H-pyrazol-1-yl)-3-sulfamoylphenyl]-acetamide] | 91 | 33
Cc1ccc(Cl)c(CC(=O)Nc2ccc(-n3cc(C#N)cn3)c(S(N)(=O)=O)c2)c1 [Example 209, 2-(2-Chloro-5-methylphenyl)-N-[4-(4-cyano-1H-pyrazol-1-yl)-3-sulfamoylphenyl]-acetamide] | 91 | 37

SMILES | Emax [%] | IC50 [nM]
COc1ccc(CC(=O)Nc2ccc(-n3cc(C#N)cn3)c(S(N)(=O)=O)c2)c(Cl)c1 [Example 210, 2-(2-Chloro-4-methoxyphenyl)-N-[4-(4-cyano-1H-pyrazol-1-yl)-3-sulfamoylphenyl]-acetamide] | 76 | 116
N#Cc1cnn(-c2ccc(NC(=O)Cc3cc(Cl)ccc3Cl)cc2S(N)(=O)=O)c1 [Example 211, N-[4-(4-Cyano-1H-pyrazol-1-yl)-3-sulfamoylphenyl]-2-(2,5-dichlorophenyl)acetamide] | 94 | 75
COc1ccc(Cl)cc1CC(=O)Nc1ccc(-n2cc(C#N)cn2)c(S(N)(=O)=O)c1 [Example 212, 2-(5-Chloro-2-methoxyphenyl)-N-[4-(4-cyano-1H-pyrazol-1-yl)-3-sulfamoylphenyl]-acetamide] | 86 | 149
CC(C)c1ccccc1CC(=O)Nc1ccc(-n2cc(C#N)cn2)c(S(N)(=O)=O)c1 [Example 213, N-[4-(4-Cyano-1H-pyrazol-1-yl)-3-sulfamoylphenyl]-2-[2-(propan-2-yl)phenyl]-acetamide] | 93 | 47
N#Cc1cnn(-c2ccc(NC(=O)Cc3cc(F)ccc3Cl)cc2S(N)(=O)=O)c1 [Example 214, 2-(2-Chloro-5-fluorophenyl)-N-[4-(4-cyano-1H-pyrazol-1-yl)-3-sulfamoylphenyl]-acetamide] | 86 | 36
N#Cc1cnn(-c2ccc(NC(=O)Cc3c(Cl)cccc3C(F)(F)F)cc2S(N)(=O)=O)c1 [Example 215, 2-[2-Chloro-6-(trifluoromethyl)phenyl]-N-[4-(4-cyano-1H-pyrazol-1-yl)-3-sulfamoylphenyl]acetamide] | 95 | 38
COc1cccc(Cl)c1CC(=O)Nc1ccc(-n2cc(C#N)cn2)c(S(N)(=O)=O)c1 [Example 216, 2-(2-Chloro-6-methoxyphenyl)-N-[4-(4-cyano-1H-pyrazol-1-yl)-3-sulfamoyl-phenyl]acetamide] | 101 | 96
N#Cc1cnn(-c2ccc(NC(=O)Cc3c(F)cc(F)cc3Cl)cc2S(N)(=O)=O)c1 [Example 217, 2-(2-Chloro-4,6-difluorophenyl)-N-[4-(4-cyano-1H-pyrazol-1-yl)-3-sulfamoyl-phenyl]acetamide] | 84 | 51
N#Cc1cnn(-c2ccc(NC(=O)Cc3ccncc3Cl)cc2S(N)(=O)=O)c1 [Example 218, 2-(3-Chloropyridin-4-yl)-N-[4-(4-cyano-1H-pyrazol*1-yl)-3-sulfamoyl-phenyl]acetamide] | 92 | 957
N#Cc1cnn(-c2ccc(NC(=O)Cc3ccc(C(F)F)cc3)cc2S(N)(=O)=O)c1 [Example 219, N-[4-(4-Cyano-1H-pyrazol-1-yl)-3-sulfamoylphenyl]-2-[4-(difluoromethyl)-phenyl]acetamide] | 65 | 250
N#Cc1cnn(-c2ccc(NC(=O)C(F)(F)c3ccccc3Cl)cc2S(N)(=O)=O)c1 [Example 220, 2-(2-Chlorophenyl)-N-[4-(4-cyano-1H-pyrazol-1-yl)-3-sulfamoylphenyl]-2,2-difluoroacetamide] | 108 | 276
NS(=O)(=O)c1cc(NC(=O)Cc2ccccc2F)ccc1-c1cncc(C(F)(F)F)c1 [Example 221, 2-(2-Fluorophenyl)-N-{3-sulfamoyl-4-[5-(trifluoromethyl)pyridin-3-yl]phenyl}-acetamide] | 63 | 40
NS(=O)(=O)c1cc(NC(=O)Cc2ccccc2OC(F)(F)F)ccc1-c1cncc(C(F)(F)F)c1 [Example 222, N-{3-Sulfamoyl-4-[5-(trifluoromethyl)pyridin-3-yl]phenyl}-2-[2-(trifluoromethoxy)-phenyl]acetamide] | 83 | 92
Cc1ccccc1CC(=O)Nc1ccc(-c2cnn(C(F)F)c2)c(S(N)(=O)=O)c1 [Example 223, N-{4-[1-(Difluoromethyl)-1H-pyrazol-4-yl]-3-sulfamoylphenyl}-2-(2-methylphenyl)-acetamide] | 87 | 26
NS(=O)(=O)c1cc(NC(=O)Cc2ccccc2C(F)(F)F)ccc1-c1cnn(C(F)F)c1 [Example 224, N-{4-[1-(Difluoromethyl)-1H-pyrazol-4-yl]-3-sulfamoylphenyl}-2-[2-(trifluoromethyl)-phenyl]acetamide] | 94 | 28
NS(=O)(=O)c1cc(NC(=O)Cc2ccccc2C(F)F)ccc1-c1cnn(C(F)F)c1 [Example 225, 2-[2-(Difluoromethyl)phenyl]-N-{4-[1-(difluoromethyl)-1H-pyrazol-4-yl]-3-sulfamoyl-phenyl}acetamide] | 91 | 70
